Data taken from US20190248834A1, “ENDOMORPHIN-2, TETRAPEPTIDE DERIVATIVES THEREOF, AND USES THEREOF” (priority 2016, published 2019).
Primed or numbered codes have the meaning given here. *: point of attachment. NHPhenethyl = c1ccc(CCN*)cc1; Bz′ = not defined here; NHBn = c1ccc(CN*)cc1; Propionyl = CCC(=O)*; NHNHAc = CC(=O)NN*; NHiPr = CC(C)N*; NHNH2 = NN*; For = O=C*; NHOH = ON*

What was measured:
Assay type in all cases: in vivo, human
[1] = tested on: periostitis of right upper tibia, osteoarthritis of left knee, left hip joint pain, lower back pain; assay: Example 87: pain relief at multiple sites in one subject, topical; conditions: for degree of analgesic effect / duration of pain relief / pain relief at the treated sites / time to pain relief: 0.8% (w/v) in WEP442, topical to the sites of pain; for duration of pain relief, right upper tibia: 0.8% (w/v) in WEP442, periostitis of right upper tibia
From the text: A caregiver subject, presented with (a) painful periostitis of the right upper tibia for about 3 months, (b) painful early osteoarthritis of the left knee for about 1 year, (c) painful left hip joint of about 6 months, and (d) lower back pain near the end of the work day for about 2 years.
Over the course of 16 days, this subject evaluated the analgesic efficacy of eight (8) endomorphin-2 tetrapeptide derivatives in WEP442 at a concentration of 0.8% (w/v) applied topically to the sites of pain.
The lower back pain returned toward the end of the following work day.
Relief of lower back pain lasted for 20-24 hours (4+ effect). […]
For the above same subject, the composition containing 0.8% (w/v) of N-Ac-Tyr-Pro-Phe-Phe-NHCH(CH3)2 (SEQ ID NO: 27) in WEP442 was topically applied to the right upper tibia, left knee and left hip.
For the above same subject, the composition containing 0.8% (w/v) of N-Fo-Tyr-Pro-Phe-Phe-NH2 (SEQ ID NO: 104) in WEP442 was topically applied to 3 sites. Relief of pain was variable. […] Relief of pain in the right upper tibia was complete in about 4 minutes, lasting for 12 hours.
For the above same subject, the composition containing 0.8% (w/v) of N-Bz-Tyr-Pro-Phe-Phe-NH2 (SEQ ID NO: 84) in WEP442 provided relief of pain within 2-4 minutes. On the left hip, the relief was complete, lasting for about 12 hours (4+ effect). On the left knee, relief was incomplete, about 50%, lasting for only about 3 hours (2+ effect). On the right upper tibia, relief was complete and lasted for about 12 hours (4+ effect).

[2] = tested on: psoriatic arthritis of interphalangeal joints of the fingers; assay: Example 93: multiple derivatives evaluated for relief of pain associated with psoriatic arthritis, topical; conditions: 0.8% (w/v) in WEP442, topical to both hands
From the text: A subject with extensive plaque psoriasis and psoriatic arthritis of interphalangeal joints of the fingers evaluated multiple tetrapeptide derivatives for comparative effectiveness on relief of their painful fingers. Over the course of 4 weeks, this subject evaluated the analgesic efficacy of ten (10) endomorphin-2 tetrapeptide derivatives in WEP442 at a concentration of 0.8% (w/v) applied topically to both hands, which included all fingers.

[3] = tested on: severe osteoarthritis of both knees; assay: Example 88: analgesic efficacy of eight derivatives on severe osteoarthritis, topical
Description: A subject with severe osteoarthritis of both knees for a duration of about 7 years evaluated numerous tetrapeptide derivatives over the past years. […] Over the course of 3 weeks, this subject evaluated the analgesic efficacy of eight (8) endomorphin-2 tetrapeptide derivatives in WEP442 at a concentration of 1% (w/v) applied topically to the knees.
Reapplication at the end of that time again provided the same effect. Application at bedtime provided relief of pain for 7 hours. The same results were achieved the next day (3+ to 4+ effect).
A second application, about 15 minutes later, provided somewhat more relief (2+ effect).
Application at 9:30 p.m. provided relief until 5:30 a.m., and similar results were achieved the next day (3+ to 4+ effect).
No modification of pain in the right knee, which had received application of vehicle WEP442 as a control, was detected. Application of the composition containing the tetrapeptide derivative to the right knee about 15 minutes later provided prompt relief of pain. Pain relief in both knees lasted for about 5 hours (3+ to 4+ effect).
Relief lasted for about 3 hours. Re-application at that time provided the same degree of pain relief in about 5 minutes, which lasted about another 3 hours (2+ effect).
For the above same subject, the composition containing 1% (w/v) of N-Fo-Tyr-Pro-Phe-Phe-NH2 (SEQ ID NO: 104) in WEP442 was applied to the left knee, and the composition containing 1% (w/v) of N-Bz-Tyr-Pro-Phe-Phe-NH2 (SEQ ID NO: 84) in WEP442 was applied to the right knee moments later. Relief of pain in both knees seemed equivalent, was detectable in 5-7 minutes and lasted for about 4 hours. This procedure was repeated the next day with about the same results. The degree of pain relief from both solutions was rated as 3+ effect.

[4] = 1% (w/v) in WEP442, topical to the knees
[5] = 0.8% (w/v) in WEP442, left knee
[6] = 0.8% (w/v) in WEP442, lower lumbar
[7] = 0.8% (w/v) in WEP442, right upper tibia

| Substance | degree of analgesic effect [1] | duration of pain relief [1] | pain relief at the treated sites [1] | time to pain relief [1] | duration of pain relief [2] | pain relief [2] | time to pain relief [2] | analgesic effect grade [3, 4] | pain relief [3, 4] | degree of analgesic effectiveness [2] | duration of pain relief [3, 4] | time to pain relief [3, 4] | duration of pain relief, right upper tibia [1] | further results |
| --- | --- | --- | --- | --- | --- | --- | --- | --- | --- | --- | --- | --- | --- | --- |
| N-Ac-Tyr-Pro-Phe-Phe-NHCH2C6H5 (Ac-YPFF-NHBn; SMILES CC(=O)N[C@@H](Cc1ccc(O)cc1)C(=O)N1CCC[C@H]1C(=O)N[C@@H](Cc1ccccc1)C(=O)N[C@@H](Cc1ccccc1)C(=O)NCc1ccccc1) | 4+ | ≥ 5 h | complete relief of pain | 3 to 4 min | about 6 hours | substantial relief of pain | 3 to 5 min | 1+ (1+ (25%): partial relief of pain for less than 4 hours) | little relief of pain | – | – | – | – | analgesic effect grade ([3]; 1% (w/v) in WEP442, second application about 15 minutes later): 2+ (2+ (50%): substantial but incomplete relief of pain for less than 4 hours) |
| N-Ac-Tyr-Pro-Phe-Phe-NHCH2CH2C6H5 (Ac-YPFF-NHPhenethyl; SMILES CC(=O)N[C@@H](Cc1ccc(O)cc1)C(=O)N1CCC[C@H]1C(=O)N[C@@H](Cc1ccccc1)C(=O)N[C@@H](Cc1ccccc1)C(=O)NCCc1ccccc1) | 0 (zero represented no relief) | – | no detectable analgesic effect | – | – | no detectable analgesic effect | – | 0 | no detectable analgesic effect | 0 (zero represented no relief) | – | – | – | – |
| N-Ac-Tyr-Pro-Phe-Phe-NHCH2CH3 (Ac-YPFF-NHEt; SMILES CCNC(=O)[C@H](Cc1ccccc1)NC(=O)[C@H](Cc1ccccc1)NC(=O)[C@@H]1CCCN1C(=O)[C@H](Cc1ccc(O)cc1)NC(C)=O) | 4+ | ≥ 5 h | complete relief of pain | 3 to 4 min | about 7 hours | complete relief of pain | 1 to 2 min | – | very good relief of pain | 4+ | 3 to 4 h | 3 to 5 min | – | duration of pain relief ([3]; 1% (w/v) in WEP442, application at bedtime): 7 h |
| N-Ac-Tyr-Pro-Phe-Phe-NHCH(CH3)2 (Ac-YPFF-NHiPr; SMILES CC(=O)N[C@@H](Cc1ccc(O)cc1)C(=O)N1CCC[C@H]1C(=O)N[C@@H](Cc1ccccc1)C(=O)N[C@@H](Cc1ccccc1)C(=O)NC(C)C) | 4+ | at least 4 hours | Complete relief of pain | 3 to 4 min | 2 to 3 h | only minimal relief of pain | 5 to 6 min | 2+ (2+ (50%): substantial but incomplete relief of pain for less than 4 hours) | moderate relief of pain | – | about 3 hours | ≤ 15 min | 7 h | – |
| N-Ac-Tyr-Pro-Phe-Phe-NHNHAc (Ac-YPFF-NHNHAc; SMILES CC(=O)NNC(=O)[C@H](Cc1ccccc1)NC(=O)[C@H](Cc1ccccc1)NC(=O)[C@@H]1CCCN1C(=O)[C@H](Cc1ccc(O)cc1)NC(C)=O) | 4+ | 8 to 24 h | complete relief of pain | 1 to 2 min | about 7 hours | complete relief of pain | ≤ 2 min | – | substantial relief of pain | 4+ | about 5 hours | 2 to 3 min | – | – |
| N-Ac-Tyr-Pro-Phe-Phe-NHOH (Ac-YPFF-{NHOH}; SMILES CC(=O)N[C@@H](Cc1ccc(O)cc1)C(=O)N1CCC[C@H]1C(=O)N[C@@H](Cc1ccccc1)C(=O)N[C@@H](Cc1ccccc1)C(=O)NO) | 4+ | ≥ 12 h | complete relief of pain | ≤ 1 min | about 2 hours | complete relief of pain | 1 to 2 min | – | very good relief of pain | – | about 5 hours | 3 to 4 min | – | duration of relief of lower back pain ([1]; 0.8% (w/v) in WEP442, lower back): 20 to 24 h |
| N-Bz-Tyr-Pro-Phe-Phe-NH2 ({Bz′}-YPFF-NH2) | – | – | – | 2 to 4 min | about 10 hours | incomplete, but substantial relief of pain | 4 to 5 min | – | – | – | about 4 hours | – | about 12 hours | degree of analgesic effect, left hip ([1]; 0.8% (w/v) in WEP442, left hip): 4+; duration of pain relief, left hip ([1]; 0.8% (w/v) in WEP442, left hip): about 12 hours; pain relief, left hip ([1]; 0.8% (w/v) in WEP442, left hip): complete; duration of pain relief, left knee [1, 5]: about 3 hours; degree of analgesic effect, lower lumbar pain [1, 6]: 4+; duration of pain relief, lower lumbar pain [1, 6]: about 4 hours; pain relief, lower lumbar pain [1, 6]: responded completely; degree of analgesic effect, right upper tibia [1, 7]: 4+; pain relief, right upper tibia [1, 7]: complete |
| N-Fo-Tyr-Pro-Phe-Phe-NH2 (For-YPFF-NH2; SMILES NC(=O)[C@H](Cc1ccccc1)NC(=O)[C@H](Cc1ccccc1)NC(=O)[C@@H]1CCCN1C(=O)[C@H](Cc1ccc(O)cc1)NC=O) | – | – | – | – | 2 to 3 h | only minimal relief of pain | 5 to 6 min | – | – | – | about 4 hours | – | 12 h | time to pain relief, left hip ([1]; 0.8% (w/v) in WEP442, left hip): about 5 minutes; pain relief, left knee [1, 5]: No relief of pain; pain relief, right upper tibia [1, 7]: complete; time to pain relief, right upper tibia [1, 7]: about 4 minutes |
| N-Pa-Tyr-Pro-Phe-Phe-NHNH2 (Propionyl-YPFF-NHNH2; SMILES CCC(=O)N[C@@H](Cc1ccc(O)cc1)C(=O)N1CCC[C@H]1C(=O)N[C@@H](Cc1ccccc1)C(=O)N[C@@H](Cc1ccccc1)C(=O)NN) | – | – | – | – | about 7 hours | complete relief of pain | 2 to 3 min | – | – | 4+ | – | – | – | – |
| N-Pa-Tyr-Pro-Phe-Phe-NHOH (Propionyl-YPFF-{NHOH}; SMILES CCC(=O)N[C@@H](Cc1ccc(O)cc1)C(=O)N1CCC[C@H]1C(=O)N[C@@H](Cc1ccccc1)C(=O)N[C@@H](Cc1ccccc1)C(=O)NO) | – | – | – | – | about 7 hours | complete relief of pain | 2 to 3 min | – | – | 4+ | – | – | – | – |
